Experimental data as given in PMC7414129, “Visualizing the enzyme mechanism of mevalonate diphosphate decarboxylase” (Nature Communications, 2020).

Tests used:
[1] = biological target: T1, MDDEF (mevalonate diphosphate decarboxylase from Enterococcus faecalis) (Enterococcus faecalis, UniProt Q9FD68, K187A); assay: biochemical
T1 construct: gene mvaD

[2] = biological target: T2, MDDEF (mevalonate diphosphate decarboxylase from Enterococcus faecalis) (Enterococcus faecalis, UniProt Q9FD68); assay: X-ray crystal structure (soaked); assay type: binding; details: 1.7 Å; binary complex; pH 4.6
T2 construct: gene mvaD; full-length, recombinant in E. coli BL21(DE3); N-terminal His tag removed by TEV protease (told for K187A, wild type purified similarly); residues 1-326 modelled
T2 sequence (Q9FD68 1-331): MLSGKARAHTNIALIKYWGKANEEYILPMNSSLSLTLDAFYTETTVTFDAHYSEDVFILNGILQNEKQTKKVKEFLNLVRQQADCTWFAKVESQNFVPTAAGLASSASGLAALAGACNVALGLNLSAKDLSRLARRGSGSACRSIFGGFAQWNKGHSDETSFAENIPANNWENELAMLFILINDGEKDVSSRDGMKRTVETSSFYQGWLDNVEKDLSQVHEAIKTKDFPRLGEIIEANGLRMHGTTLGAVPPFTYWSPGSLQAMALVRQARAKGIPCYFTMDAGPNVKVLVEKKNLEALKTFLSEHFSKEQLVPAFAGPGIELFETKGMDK

purified protein [3] = substrate: C[C@@](O)(CCOP(=O)(O)OP(=O)(O)O)CC(=O)O; assay: purified protein; details: cobalt substituting for magnesium, co-substrate ATP, 100 mM HEPES pH 7.0, 100 mM KCl, 30 °C (standard assay)
purified protein [4] = substrate: Nc1ncnc2c1ncn2[C@@H]1O[C@H](COP(=O)(O)OP(=O)(O)OP(=O)(O)O)[C@@H](O)[C@H]1O; assay: purified protein; details: cobalt substituting for magnesium, co-substrate MVAPP, 100 mM HEPES pH 7.0, 100 mM KCl, 30 °C (standard assay)

Nc1ncnc2c1ncn2[C@@H]1O[C@H](CO[P@](=O)(O)O[P@](=O)(O)O[P@@](=O)(O)S)[C@@H](O)[C@H]1O [ATPγS]
Kd [1]: 182 ± 36 µM

C[C@@](O)(CCOP(=O)(O)OP(=O)(O)O)CC(=O)O [MVAPP, mevalonate-5-diphosphate]
X-ray crystal structure (soaked) [2]: MDDEF-MVAPP: 6E2T

B1: MDDEF (mevalonate diphosphate decarboxylase from Enterococcus faecalis) (Enterococcus faecalis) (protein)
chain: MLSGKARAHTNIALIKYWGKANEEYILPMNSSLSLTLDAFYTETTVTFDAHYSEDVFILNGILQNEKQTKKVKEFLNLVRQQADCTWFAKVESQNFVPTAAGLASSASGLAALAGACNVALGLNLSAKDLSRLARRGSGSACRSIFGGFAQWNKGHSDETSFAENIPANNWENELAMLFILINDGEKDVSSRDGMKRTVETSSFYQGWLDNVEKDLSQVHEAIKTKDFPRLGEIIEANGLRMHGTTLGAVPPFTYWSPGSLQAMALVRQARAKGIPCYFTMDAGPNVKVLVEKKNLEALKTFLSEHFSKEQLVPAFAGPGIELFETKGMDK
Km (purified protein [3]): 39.3 ± 4.0 µM | Km (purified protein [4]): 188 ± 13 µM
